Results as given in ChEMBL document CHEMBL2073989, “Immunohistochemical distribution and functional characterization of an organic anion transporting polypeptide 2 (oatp2)” (FEBS Lett, 1999).

Target: T1, Solute carrier organic anion transporter family member 1A4 (Rattus norvegicus, UniProt O35913)
T1 sequence (O35913 whole entry): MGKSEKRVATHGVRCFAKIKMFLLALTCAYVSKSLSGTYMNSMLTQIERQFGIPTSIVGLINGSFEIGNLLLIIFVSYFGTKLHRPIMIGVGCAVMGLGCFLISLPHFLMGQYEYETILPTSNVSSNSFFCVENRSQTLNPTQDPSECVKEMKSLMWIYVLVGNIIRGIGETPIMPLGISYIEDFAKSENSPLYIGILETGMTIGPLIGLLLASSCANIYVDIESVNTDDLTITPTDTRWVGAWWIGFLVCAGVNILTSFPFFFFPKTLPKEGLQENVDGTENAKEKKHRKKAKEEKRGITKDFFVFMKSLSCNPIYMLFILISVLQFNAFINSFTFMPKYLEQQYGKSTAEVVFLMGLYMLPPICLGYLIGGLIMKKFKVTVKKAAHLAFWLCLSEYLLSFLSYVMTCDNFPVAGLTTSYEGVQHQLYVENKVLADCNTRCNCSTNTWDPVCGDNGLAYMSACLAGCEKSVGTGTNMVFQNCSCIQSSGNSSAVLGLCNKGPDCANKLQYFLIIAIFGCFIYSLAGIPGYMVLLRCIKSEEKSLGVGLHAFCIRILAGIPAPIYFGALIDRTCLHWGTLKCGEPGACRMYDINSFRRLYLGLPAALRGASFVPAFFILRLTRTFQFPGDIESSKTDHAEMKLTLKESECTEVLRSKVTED
Experiment: TP_TRANSPORTER: uptake in Xenopus laevis oocytes
Assay type: functional, cell-based
Settings: oocyte

Q: Which Activity does the source give for `O=C(O)CCCC[C@@H]1SC[C@@H]2NC(=O)N[C@@H]21` [BIOTIN] here?
A: substrate [+]
